Publication PMC137065 (Journal of Biology, 2002)
Several values for one entry are separate records, joined by “and”; a condition that tells them apart may be missing. Identical values can stand only once. Like-named read-outs stand apart in the source and are kept apart here. One block for each compound: values may come before it.

How the values were obtained:
[1] = biological target: murine Smo W539L (Smo^act) (Mus musculus, UniProt P56726, W539L); test: filtration membrane-binding assay, Smo^act-containing membranes
[2] = biological target: murine Smo (Mus musculus, UniProt P56726); test: filtration membrane-binding assay, Smo-containing membranes from 293T cells
[3] = biological target: HA-tagged Smo (Mus musculus, UniProt P56726); test: whole cell/immunocomplex binding assay, Smo-transfected 293T cells; conditions: unlabeled competitor at 5 μM, 37°C, 2 hours
[4] = system: Hh signaling; test: luciferase-based reporter assay of Hh signaling in C3H10T1/2 cells; assay type: cell-based; conditions: for inhibition of Hh protein-activated versus agonist-activated cells: Hh protein (10 nM) or Hh-Ag 1.2 (200 nM); for effect on pathway activation by the agonist: cells activated by Hh-Ag 1.2 (200 nM)
[5] = system: Smo^act-expressing cells; conditions: ref [11],[17]; cited from earlier work
[6] = Smo^act, competition with [3H]-Hh-Ag 1.5 (0.4 nM)
[7] = Smo^wt, competition with [3H]-Hh-Ag 1.5 (0.4 nM)

Chain of murine Smo W539L (Smo^act) (P56726 33-793 W539L): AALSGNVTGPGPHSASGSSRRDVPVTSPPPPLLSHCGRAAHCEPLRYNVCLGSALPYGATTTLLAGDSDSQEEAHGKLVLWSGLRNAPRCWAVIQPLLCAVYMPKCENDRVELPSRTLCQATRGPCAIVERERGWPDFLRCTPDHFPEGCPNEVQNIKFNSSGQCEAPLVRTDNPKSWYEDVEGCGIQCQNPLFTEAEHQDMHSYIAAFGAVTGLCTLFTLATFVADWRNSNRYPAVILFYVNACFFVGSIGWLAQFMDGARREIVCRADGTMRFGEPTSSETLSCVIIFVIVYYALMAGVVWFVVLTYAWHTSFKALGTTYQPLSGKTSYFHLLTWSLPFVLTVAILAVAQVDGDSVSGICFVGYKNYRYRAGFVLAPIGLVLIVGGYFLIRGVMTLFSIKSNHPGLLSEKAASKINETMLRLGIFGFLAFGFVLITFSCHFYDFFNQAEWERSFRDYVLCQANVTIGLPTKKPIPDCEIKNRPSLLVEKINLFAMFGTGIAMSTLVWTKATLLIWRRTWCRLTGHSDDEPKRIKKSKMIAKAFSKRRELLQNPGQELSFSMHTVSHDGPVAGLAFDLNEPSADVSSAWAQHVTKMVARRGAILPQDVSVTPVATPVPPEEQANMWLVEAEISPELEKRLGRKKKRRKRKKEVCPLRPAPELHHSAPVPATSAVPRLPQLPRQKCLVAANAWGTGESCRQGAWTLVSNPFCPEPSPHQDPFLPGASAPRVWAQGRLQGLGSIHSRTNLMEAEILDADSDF
Chain of HA-tagged Smo (P56726 33-793): as the sequence (P56726 33-793 W539L) above, with L507W counted along it
Chain of murine Smo (P56726 33-793): as the sequence (P56726 33-793 W539L) above, with L507W counted along it

- Ki on Smo^act- compared to Smo^wt-containing membranes [1]: seven-fold higher
- Ki [1, 6]: 309 nM
- Ki [2, 7]: 44 nM
- competition of [3H]-Hh-Ag 1.5 (2 nM) binding ([2]; competitor at 10 μM): significantly compete
- competition of [3H]-Hh-Ag 1.5 (5 nM) binding [3]: significantly compete
Structure (SMILES): COc1cccc(CN(C(=O)CC(C)(C)C)[C@H]2C[C@@H](C(=O)N3CCNCC3)N(Cc3ccc4c(c3)OCO4)C2)c1 [Cur61414]
- inhibition of Hh protein-activated versus agonist-activated cells [4]: differ in their sensitivity
- effect on pathway activation by the agonist [4]: inhibitory
- potency on Smo^act-expressing cells [5]: decreased potency

- Ki [1, 6]: ~0.5 nM
- affinity for Smo^act ([1]; kinetic and saturation binding assay, data not shown): affinity identical to that of Smo^wt
- Ki [2, 7]: 0.52 nM and ~0.5 nM
- Kd ([2]; saturation binding, approximately 45 hours at 37°C, one-site model): 0.37 nM
- competition of [3H]-Hh-Ag 1.5 (2 nM) binding ([2]; unlabeled competitor at 2 μM): completely competed out
- EC50 ([4]; cell-based reporter assay): ~1 nM and 1 nM
Structure (SMILES): CNC1CCC(N(Cc2cccc(-c3ccncc3)c2)C(=O)c2sc3c(F)ccc(F)c3c2Cl)CC1 (stereo not shown) [Hh-Ag 1.5]
- competition of [3H]-Hh-Ag 1.5 (5 nM) binding [3]: complete absence of counts in the immunocomplex
- increase of potency by chemical modification ([4]; relative to Hh-Ag 1.1): over 1000 fold

Structure (SMILES): CC1=C2C[C@H]3[C@@H](CC=C4CC(=O)CC[C@@]43C)[C@@H]2CC[C@]12O[C@@H]1C[C@H](C)CN(CCNC(=O)CCCCCNC(=O)CCc3ccccc3)[C@H]1[C@H]2C [KAAD-cyclopamine]
- Ki [1]: 38.3 nM
- Ki on Smo^act- compared to Smo^wt-containing membranes [1]: seven-fold higher
- Ki [2]: 5.8 nM
- competition of [3H]-Hh-Ag 1.5 (2 nM) binding [2]: significantly compete
- competition of [3H]-Hh-Ag 1.5 (5 nM) binding [3]: significantly compete
- inhibition of Hh protein-activated versus agonist-activated cells [4]: Identical results
- potency on Smo^act-expressing cells [5]: decreased potency

Structure (SMILES): CC1=C2C[C@H]3[C@@H](CC=C4C[C@@H](O)CC[C@@]43C)[C@@H]2CC[C@]12O[C@@H]1C[C@H](C)CN[C@H]1[C@H]2C [cyclopamine]
- inhibition of Hh protein-activated versus agonist-activated cells [4]: differ in their sensitivity

Structure (SMILES): C=C[C@@]1(C)CC(=O)[C@]2(O)[C@@]3(C)[C@@H](O)CCC(C)(C)[C@@H]3[C@H](O)[C@H](OC(C)=O)[C@@]2(C)O1 [forskolin]
- inhibition of Hh protein-activated versus agonist-activated cells [4]: identical inhibition curves
- effect on pathway activation by the agonist [4]: inhibitory

Structure (SMILES): CC1=C2C(=O)[C@H]3[C@@H](CC=C4C[C@@H](O)CC[C@@]43C)[C@@H]2CC[C@]12O[C@@H]1C[C@H](C)CN[C@H]1[C@H]2C [jervine]
- inhibition of Hh protein-activated versus agonist-activated cells [4]: Identical results

Structure (SMILES): C[C@H]1CC[C@]2(NC1)O[C@H]1C[C@H]3[C@@H]4CC[C@H]5C[C@@H](O)CC[C@]5(C)[C@H]4CC[C@]3(C)[C@H]1[C@@H]2C [tomatadine]
- Hh signaling activity ([4]; described in words): inactive
